Results reported in patent publication US20230061736A1, “GPR119 AGONISTS” (Kallyope, Inc., priority 2019, published 2023).
pEC50: −log10 of the molar value. Like-named read-outs stand apart in the source and are kept apart here.

Columns and labels:
[1] = In vivo plasma levels in mice after oral gavage; design: species or system C57BL/6J mice; conditions: mouse, 30 mpk oral gavage, 2 h post-dose; for concentration at 2 h: male, C57BL/6J, plasma, 30 mg/kg, read-out: Exposure Total (plasma)
human GPR119 (hGPR119) = target: T1, human GPR119 (hGPR119) (Homo sapiens, UniProt Q8TDV5); experiment: cAMP accumulation assay (cAMP Gs dynamic HTRF kit); format: cell-based; conditions: CHO-K1 cells stably expressing hGPR119, 4-parameter fit; for Emax: 1 h, % activity normalized to Max/Min controls; for pEC50: cAMP accumulation
T1 construct: expressed in transfected cells
T1 sequence (Q8TDV5 1-335): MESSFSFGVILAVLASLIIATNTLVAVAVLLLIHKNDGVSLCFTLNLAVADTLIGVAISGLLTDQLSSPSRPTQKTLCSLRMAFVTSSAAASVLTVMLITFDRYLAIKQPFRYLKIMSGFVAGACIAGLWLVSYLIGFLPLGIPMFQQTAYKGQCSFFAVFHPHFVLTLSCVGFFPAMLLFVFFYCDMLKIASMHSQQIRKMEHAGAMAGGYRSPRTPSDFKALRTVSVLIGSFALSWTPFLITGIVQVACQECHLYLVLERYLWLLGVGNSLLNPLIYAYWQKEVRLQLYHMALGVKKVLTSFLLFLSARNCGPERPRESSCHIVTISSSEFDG
Procedure, shortened: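 CHO-K1 cells stably expressing hGPR119, used as assay-ready frozen stocks at ~10,000 cells/well, exposed to compound dose-response in stimulation buffer with Tween 80 for 60 min at 37° C. cAMP read by HTRF (665/620 nm ratio), normalised to Max/Min controls; EC50 and Max activity from 4-parameter fit.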

[2] = In vivo plasma levels in mice after oral gavage; design: species or system C57BL/6J mice; conditions: mouse, 30 mpk oral gavage; for Exposure unbound (plasma): total exposure x free fraction from plasma protein binding
Procedure: Male C57BL/6J mice 10-12 weeks old were dosed with test article or vehicle [0.25% (w/v) methylcellulose, 5% (v/v) Polysorbate 80, and 0.02% (w/v) sodium lauryl sulfate in Hanks' Balanced Salt solution (all final concentrations)] by oral gavage at a volume of 10 mL/kg. Animals were euthanized with carbon dioxide 7-8 h post dose. Blood was collected for measurement of plasma concentrations of test article. Unbound exposure was calculated by multiplying the measured total exposure by the free fraction as assessed from plasma protein binding.
Plasma protein binding to isotonic phosphate buffer (PBS) containing 10% C57 BL/6 mouse plasma was determined using equilibrium dialysis of plasma spiked with test article (2 μM) against a dialysis buffer (100 mM sodium phosphate and 150 mM NaCl). At the end of the dialysis (4 hr), aliquots of the plasma and buffer were processed by protein precipitation for LC-MS/MS analysis to quantitate the test article.

[3] = Oral bioavailability in mice; conditions: mouse, in vivo; C57BL/6 mice; IV 1 mg/kg, PO 30 mg/kg
Procedure: Compounds were dosed IV at 1 mg/kg as a formulation of 0.5 mg/mL in 5% DMSO+30% PEG400+65% water and PO at 30 mg/kg as a formulation of 6 mg/mL in 0.25% methylcellulose+5% Tween 80+0.02% SDS in water (Compound 42) or 0.5% methylcellulose+0.5% Tween 80 in water (Compound 83).

[4] = in rats; Bioorganic & Medicinal Chemistry Letters 27(5), 2017, 1124-1128 (Compound 17 in the reference); cited from earlier work
[5] = male, C57BL/6J, plasma, 30 mg/kg, 7 h post-dose, read-out: Exposure Total (plasma)

| SMILES | Emax (human GPR119 (hGPR119)) [%] | pEC50 (human GPR119 (hGPR119)) | concentration at 7 h [2, 5] [nM] | Exposure unbound (plasma) ([2]; 7 h post-dose) [nM] | other results |
| --- | --- | --- | --- | --- | --- |
| CC(C)c1noc(N2CCC(COc3ccc(-c4ccc(S(C)(=O)=O)cc4)nc3)CC2)n1 [GSK1292263, 3-isopropyl-5-(4-(((6-(4-(methylsulfonyl)phenyl)pyridin-3-yl)oxy)methyl)piperidin-1-yl)-l,2,4-oxadiazole, reference compound] | – | – | – | – | concentration at 2 h [1]: 7840 nM |
| O=C(NC[C@H](O)[C@@H](O)[C@H](O)[C@H](O)CO)C1CN(C(=O)Cc2ccc(OCCCC3CCN(c4ncc(Cl)cn4)CC3)cc2F)C1 (racemic) [Example 37, 1-[2-[4-[3-[1-(5-chloropyrimidin-2-yl)-4-piperidyl]propoxy]-2-fluoro-phenyl]acetyl]-N-[rac-(2S,3R,4R,5R)-2,3,4,5,6-pentahydroxyhexyl]azetidine-3-carboxamide] | 100 to 130 | 6.00 to 7.00 | 551 | 1.1 | – |
| O=C(CC1CN(C(=O)Cc2ccc(OCCCC3CCN(c4ncc(Cl)cn4)CC3)cc2F)C1)NC[C@H](O)[C@@H](O)[C@H](O)[C@H](O)CO (racemic) [Example 38, 2-[1-[2-[4-[3-[1-(5-chloropyrimidin-2-yl)-4-piperidyl]propoxy]-2-fluoro-phenyl]acetyl]azetidin-3-yl]-N-[rac-(2S,3R,4R,5R)-2,3,4,5,6-pentahydroxyhexyl]acetamide] | ≥ 130 | 6.00 to 7.00 | 76 | 0.2 | – |
| O=C(NC(CO)(CO)CO)C1CN(C(=O)Cc2ccc(OCCCC3CCN(c4ncc(Cl)cn4)CC3)cc2F)C1 [Example 29, 1-[2-[4-[3-[1-(5-chloropyrimidin-2-yl)-4-piperidyl]propoxy]-2-fluoro-phenyl]acetyl]-N-[2-hydroxy-1,1-bis(hydroxymethyl)ethyl]azetidine-3-carboxamide] | ≥ 130 | ≥ 7.00 | 354 | 0.7 | – |
| O=C(Cc1ccc(OCCCC2CCN(c3ncc(Cl)cn3)CC2)cc1F)N1CC(CNC[C@H](O)[C@@H](O)[C@H](O)[C@H](O)CO)C1 [Example 42, 2-[4-[3-[1-(5-chloropyrimidin-2-yl)-4-piperidyl]propoxy]-2-fluoro-phenyl]-1-[3-[[[(2S,3R,4R,5R)-2,3,4,5,6-pentahydroxyhexyl]amino]methyl]azetidin-1-yl]ethanone] | 100 to 130 | 6.00 to 7.00 | – | – | concentration at 8 h ([2]; male, C57BL/6J, plasma, 30 mg/kg, 8 h post-dose, read-out: Exposure Total (plasma)): 369 nM; Exposure unbound (plasma) ([2]; 8 h post-dose): 1.1 nM; bioavailability [3]: 2.4%; concentration at 2 h [1]: 806 nM; Exposure unbound (plasma) ([1]; total exposure x free fraction from plasma protein binding): 2.4 nM |
| O=C(Cc1ccc(OCCCC2CCN(c3ncc(Cl)cn3)CC2)cc1F)N1CC(CNC(CO)(CO)CO)C1 [Example 44, 2-[4-[3-[1-(5-chloropyrimidin-2-yl)-4-piperidyl]propoxy]-2-fluoro-phenyl]-1-[3-[[[2-hydroxy-1,1-bis(hydroxymethyl)ethyl]amino]methyl]azetidin-1-yl]ethanone] | ≥ 130 | ≥ 7.00 | 668 | 0.7 | – |
| COCc1cnc(N2CCC(CCCOc3ccc(CC(=O)N4CC(CNC[C@H](O)[C@@H](O)[C@H](O)[C@H](O)CO)C4)c(F)c3)CC2)nc1 [Example 83, 2-[2-fluoro-4-[3-[1-[5-(methoxymethyl)pyrimidin-2-yl]-4-piperidyl]propoxy]phenyl]-1-[3-[[[(2S,3R,4R,5R)-2,3,4,5,6-pentahydroxyhexyl]amino]methyl]azetidin-1-yl]ethanone] | 100 to 130 | 6.00 to 7.00 | – | – | bioavailability [3]: 1.4% |
| COc1c(Nc2ccc(S(C)(=O)=O)nc2C)ncnc1OC1CCN(C(=O)OC(C)C)CC1 [APD597, isopropyl 4-((5-methoxy-6-((2-methyl-6-(methylsulfonyl)pyridin-3-yl)amino)pyrimidin-4-yl)oxy)piperidine-1-carboxylate, reference compound] | – | – | – | – | concentration at 2 h [1]: 16200 nM |
| COCc1cnc(N2CCC([C@H]3C[C@H]3CCOc3cc(F)c(CC(=O)N4CCC4)c(F)c3)CC2)nc1 [1-(azetidin-1-yl)-2-(2,6-difluoro-4-(2-((1S,2R)-2-(1-(5-(methoxymethyl)pyrimidin-2-yl)piperidin-4-yl)cyclopropyl)ethoxy)phenyl)ethan-1-one] | – | – | – | – | bioavailability [4]: 80% |
| O=C(Cc1ccc(OCC[C@@H]2C[C@@H]2C2CCN(c3ncc(Cl)cn3)CC2)cc1F)N1CC(CNC[C@H](O)[C@@H](O)[C@H](O)[C@H](O)CO)C1 [Example 86, 2-[4-[2-[(1S,2R)-2-[1-(5-chloropyrimidin-2-yl)-4-piperidyl]cyclopropyl]ethoxy]-2-fluoro-phenyl]-1-[3-[[[(2S,3R,4R,5R)-2,3,4,5,6-pentahydroxyhexyl]amino]methyl]azetidin-1-yl]ethanone] | 100 to 130 | 6.00 to 7.00 | 67 | 0.1 | – |
| CCOc1cnc(N2CCC(CCCOc3cc(F)c(CC(=O)N4CC[C@@H](CNC[C@H](O)[C@@H](O)[C@H](O)[C@H](O)CO)C4)c(F)c3)CC2)nc1 [Example 134, 2-[4-[3-[1-(5-ethoxypyrimidin-2-yl)-4-piperidyl]propoxy]-2,6-difluoro-phenyl]-1-[(3S)-3-[[[(2S,3R,4R,5R)-2,3,4,5,6-pentahydroxyhexyl]amino]methyl]pyrrolidin-1-yl]ethanone] | 100 to 130 | ≥ 7.00 | – | – | – |
| CCCc1cnc(N2CCC(CCCOc3ccc(CC(=O)N4CC(CNCC(O)(CO)CO)C4)c(F)c3)CC2)nc1 [Example 71, 1-(3-(((2,3-dihydroxy-2-(hydroxymethyl)propyl)amino)methyl)azetidin-1-yl)-2-(2-fluoro-4-(3-(1-(5-propylpyrimidin-2-yl)piperidin-4-yl)propoxy)phenyl)ethan-1-one] | 100 to 130 | ≥ 7.00 | – | – | – |
| O=C(Cc1c(F)cc(OCCC2CC3(CCN(c4ncc(Cl)cn4)CC3)C2)cc1F)N1CC(CNC[C@H](O)[C@@H](O)[C@H](O)[C@H](O)CO)C1 [Example 115, 2-[4-[2-[7-(5-chloropyrimidin-2-yl)-7-azaspiro[3.5]nonan-2-yl]ethoxy]-2,6-difluoro-phenyl]-1-[3-[[[(2S,3R,4R,5R)-2,3,4,5,6-pentahydroxyhexyl]amino]methyl]azetidin-1-yl]ethanone] | 100 to 130 | 6.00 to 7.00 | – | – | – |
